For 88 molecules, melting point results are on record in a melting point compilation (Tetko et al.; mined from patent text by program, amines drawn as free bases though some values may be those of a salt).

In the case of `O=C(NCCc1ccc(CN2CCCC2)cc1)N1CCC(c2ccc(Cl)cc2)CC1`, the melting point is 116 to 117 °C.

In turn, `Cc1oc(-c2ccccc2)nc1COc1ccc(CON=C(CCC(=O)O)c2ccccn2)cc1` had a melting point of 116 to 117 °C.

Molecule `CCC1(CC)C(=O)N(CCO)CC(C)(C)N1OC(C)(C)C#N` returned a melting point of 80 to 82 °C.

With `Cc1ccc(S(=O)(=O)OCC2Cc3cccc(-c4ccccc4Cl)c3O2)cc1` (stereo not drawn), the melting point fell in the range of 100 to 103 °C.

In the case of `CC(C)C[C@H](NC(=O)[C@@H](O)[C@@H](Cc1ccc(S(C)(=O)=O)cc1)NC(=O)OCc1ccccc1)C(=O)OCc1ccccc1`, the melting point was in the range of 136 to 138 °C.

Consider `CCOC(=O)c1nn(-c2ccc(Br)cc2)c2c1CCCC2`, for which the melting point amounted to 147 °C.

The molecule `CC(C)(C)c1ccc(C(=O)Nc2cn3cc(-c4ccoc4)ccc3n2)cc1` displayed a melting point of 258 to 259 °C.

Take `O=C1CCN(C(=O)C(Cc2ccccc2)NC(=O)c2cc3cc(Cl)ccc3[nH]2)CC1` (stereo not drawn): the melting point was in the range of 258 to 261 °C.

On to `NCCCNC(=O)c1cccc(Nc2nccc(-c3ccnc(NCCCO)c3)n2)c1`, for which the melting point was 169 to 170 °C.

Molecule `O=C(O)c1ccc(-n2c(-c3ccccc3)cc3c2CCCC3)cc1` came in with a melting point of 244 to 246 °C.

As to `Oc1ccc(OCCN2CCCCC2)cc1`, the melting point is 148 to 150 °C.

`CCOc1cc2c(cc1S(N)(=O)=O)C(CNC(=O)N1CC(C)=C(CC)C1=O)CCO2` (stereo not drawn) displayed a melting point of 192 °C.

`O=C(Cn1ccnc1)c1cccc(-c2ccccc2)c1` registered a melting point of 128 to 129 °C.

As for `CC(=O)c1cccc2nnsc12`, the melting point lay within 126 to 127 °C.

For the molecule `CC(C)[C@H](NC(=O)OCc1ccccc1)C(=O)NC(Cc1ccccc1)C(O)C(Cc1ccccc1)NC(=O)OC(C)(C)C` (stereo partly drawn), the melting point was in the range of 187 to 188 °C.

For `CSc1ncc(F)c(NCc2ccccc2F)n1`, the melting point was in the range of 144 to 146 °C.

`Oc1cccc(-c2n[nH]c3c2Cc2ccccc2-3)c1` had a melting point of 302 to 304 °C.

As for `C=C(C)C#Cc1cccc2c1C(=O)OC(C)(C)O2`, the melting point is 60 °C.

`COC(=O)c1cn(Cc2ccc3cc(OCc4ccccc4)ccc3c2)cc1-c1ccccc1` showed a melting point of 109 to 110 °C.

`CCC(C)(C)c1ccc2nc(-c3ccc([N+](=O)[O-])cc3)oc2c1` displayed a melting point of 147 to 148 °C.

As for `COc1cccc(CC(O)C2CCNCC2)c1OC` (stereo not drawn), the melting point is 82 to 84 °C.

`NC(=O)c1cncnc1`: the melting point was in the range of 175 to 178 °C.

In the case of `COc1ccc2c(c1)c(CC(=O)OCc1cccnc1)c(C)n2C(=O)c1ccc(Cl)cc1`, the melting point lay in the range of 116 to 118 °C.

In turn, `COc1ccc(C(=O)c2c(F)cccc2F)cc1` came in with a melting point of 122 to 124 °C.

In the case of `O=c1[nH]c(=O)c2nc3ccccc3nc2[nH]1`, the melting point amounted to 300 °C.

Molecule `COc1ccc2c(c1)C(=O)C(=O)C1=C2OC2(CCN(Cc3ccc(F)cc3)CC2)CS1` registered a melting point of 219 to 221 °C.

Molecule `O=C(O)CC/C=C\CC[C@@H]1[C@@H](OCc2ccc(-c3ccccc3)cc2)CO[C@@H]1c1cccnc1` came in with a melting point of 94 to 96 °C.

For `CCCSc1ccc(C(=O)C(=O)O)[nH]1`, the melting point came to 87 °C.

Turning to `CCOCCOCCOCCOc1ccc(OCCCCCCCCCCCCOc2ccccc2)cc1N(CC(=O)O)CC(=O)O`, the melting point lay in the range of 58 to 61 °C.

Molecule `CC(C)(C)c1cc(C(C)(C)C)c(OP2OCCN2C(C)(C)C)c(C(C)(C)C)c1` (stereo not drawn) showed a melting point of 73 to 74 °C.

On to `Cc1cc(C(=O)O)sn1`, for which the melting point lay within 203 to 204 °C.

`C=CCC(O)c1ccc2ccccc2c1` (stereo not drawn) registered a melting point of 35 to 39 °C.

For the molecule `Cn1ncc2[nH]c3c(Br)cccc3c(=O)c21`, the melting point amounted to 287 °C.

For `COP(=O)(COC1C=CC(n2cnc3c(N)ncnc32)O1)OC` (stereo not drawn), the melting point is 146 to 149 °C.

The molecule `O=C(NCc1ncco1)c1ccnc(N2CCN(Cc3ccc(F)cc3)C2=O)c1` gave a melting point of 148 to 150 °C.

On to `N#Cc1cc(C(F)(F)F)cc(Cl)c1N1CN(Br)C(C(F)(F)F)=CC1=O`, for which the melting point was in the range of 166 to 167 °C.

The molecule `CC(C(=O)O)c1ccc2c(c1)C(=O)Cc1cccnc1S2` (stereo not drawn) showed a melting point of 141 to 143 °C.

As for `CC1(C)C(C=CC(=O)O)C1C(=O)OC(C#N)c1ccc(F)c(Oc2ccccc2)c1` (stereo not drawn), the melting point was 99 °C.

As for `CC12Cc3cnn(-c4ccc(F)cc4)c3C=C1CCC1C2=CCCC1c1ccccn1` (stereo not drawn), the melting point is 154 to 156 °C.

In turn, `COc1cc(C(C)(C)C)c(OC)cc1I` gave a melting point of 80.5 to 82.5 °C.

In turn, `CN1CC(CCCl)Oc2ncccc2C1=S` (stereo not drawn) showed a melting point of 134 to 136 °C.

`O=C(O)C(=O)c1ccc(C(=O)NCCOc2ccc3ccccc3c2)cc1` returned a melting point of 173 to 175 °C.

Turning to `C[C@@H](n1cnc2cc(-c3ccc(C(N)=O)cc3)sc2c1=O)[C@](O)(Cn1cncn1)c1ccc(F)cc1F`, the melting point lay in the range of 280 to 285 °C.

`COc1cc2c(cc1OC)CN(CCc1ccc(NC(=O)c3cccc4c(=O)c5cccc(F)c5[nH]c34)cc1)CC2`: the melting point was found to be 212 °C.

`Cc1c(Cl)cccc1N1CCN(CCc2nn(Cc3c[nH]cn3)c3cc4c(cc23)OCO4)CC1` yielded a melting point of 176 to 177 °C.

As to `CC(C)(C)[Si](C)(C)CCCSCCNC(=O)n1cc(F)c(=O)[nH]c1=O`, the melting point was 123 to 124 °C.

`CCSC1(CCO)C(=O)Nc2ccc(Cl)cc21` (stereo not drawn) yielded a melting point of 132 to 135 °C.

Regarding `O=C(O)C=Cc1ccc(-c2ccc(-c3cccs3)s2)s1`, the melting point was in the range of 220 to 225 °C.

`O=C(O)CCc1ccc(CNC(=O)OCC2c3ccccc3-c3ccccc32)cc1` gave a melting point of 164 to 166 °C.

`CN(Cc1ccc(NC(=O)C2=Cc3cc(-c4ccc(OC5CCOCC5)cc4)ccc3S(=O)(=O)CC2)cc1)C1CCOCC1` displayed a melting point of 227 to 229 °C.

`COC(=O)c1c(S(=O)C(C)C)c2cc(OC)ccc2n1C` (stereo not drawn) showed a melting point of 130 to 134 °C.

Consider `Brc1oc2ccc(Cc3nnn[nH]3)cc2c1-c1ccccc1`, for which the melting point is 215 to 217 °C.

With `O=c1[nH]c2ccc3c(c2o1)OC(CN1CC=C(c2c[nH]c4ccccc24)CC1)CO3` (stereo not drawn), the melting point was determined as 202 °C.

As for `CCCc1c(O)cccc1Oc1cc(F)ccc1C(=O)OC`, the melting point fell in the range of 92 to 94 °C.

The molecule `O=C1NCC(C(F)(F)F)C(=O)N1Cc1ccccc1` (stereo not drawn) displayed a melting point of 129 to 130 °C.

The molecule `COc1ccc(-c2cnc(C#N)nc2)cc1OC1CCCC1` had a melting point of 121 to 123 °C.

`O=[N+]([O-])c1ccc(Cn2c(S(=O)(=O)C(F)(F)C(F)F)nc(-c3ccc(F)cc3)c2-c2ccc(F)cc2)cc1` came in with a melting point of 169 to 170 °C.

`O=C(CO)NCc1ccc2ccn(C3CCN(CCc4ccccc4F)CC3)c2c1` returned a melting point of 151 to 152 °C.

For `COc1ccc(-c2cc3ccc(OC)cc3s2)cc1`, the melting point lay in the range of 193 to 194 °C.

The molecule `CC(C)(C)Nc1nc(-c2ccc(F)cc2)c(-c2ccc(S(C)(=O)=O)cc2)s1` came in with a melting point of 250 to 253 °C.

`OCc1cn(-c2c(Cl)cc(C(F)(F)F)cc2Cl)nn1` gave a melting point of 123 to 125 °C.

`O=CC(=Cc1ccc(OCc2ccccc2)cc1)C(C=O)=Cc1ccc(OCc2ccccc2)cc1`: the melting point lay in the range of 119 to 120 °C.

For `COC1(c2csc(S(=O)(=O)c3ccc4c(c3)CC/C4=N\O)c2)CCOCC1`, the melting point fell in the range of 144 to 145 °C.

For `CC1(C)CCC(=Cc2ccc(Cl)cc2)C(=O)C1`, the melting point was in the range of 85 to 86 °C.

`N#CCc1c[nH]c2ccc(NC(=O)NC3CCCCC3)cc12`: the melting point was in the range of 233 to 234 °C.

As to `COc1ccccc1NC(=O)Nc1nc(Nc2ccccc2-c2ccccc2)nc(N2CCCC(C(=O)O)C2)n1` (stereo not drawn), the melting point was 245 to 247 °C.

On to `CC(C)N(C(=O)CC=C1CSC(N)=N1)c1ccc(Cl)cc1`, for which the melting point is 145 to 147 °C.

Consider `CCn1ncc2c(N)c3c(nc21)CCc1ccccc1C3=O`, for which the melting point fell in the range of 132 to 133 °C.

Consider `CC(C)(C)c1nc(C(=O)c2nccs2)nc(C(C)(C)C)c1O`, for which the melting point was in the range of 181 to 184 °C.

On to `CC(C)(C)OC(=O)C[C@H](NC(=O)CNC(=O)CC1(c2ccc(C(N)=S)cc2)OCCO1)C(=O)N[C@@H](Cc1ccccc1)C(=O)OC(C)(C)C`, for which the melting point fell in the range of 96 to 98 °C.

Molecule `N=C(N)c1noc2cc([N+](=O)[O-])ccc12` came in with a melting point of 182 to 185 °C.

Turning to `COCc1cccc(COC)c1C#N`, the melting point lay within 80 to 81 °C.

The molecule `COC(=O)[C@H](Cc1ccccc1)NC(=O)[C@H](Cc1ccccc1)NC(=S)Cc1ccc(C)cc1` returned a melting point of 115 to 117 °C.

As for `CCOC(=O)N1CCC(Nc2nc3ccccc3n2Cc2csc(C)n2)CC1`, the melting point is 160 °C.

In turn, `Clc1cccc(-c2cnccn2)c1` yielded a melting point of 53 to 54 °C.

`CNCC(=O)NC(=O)OC(C)(C)C` had a melting point of 103 °C.

Molecule `CCn1nnc2cc3c(N4CCN(C(=O)Nc5ccc(Oc6ccccc6)cc5)CC4)ncnc3cc21` showed a melting point of 167 to 168 °C.

As to `Cc1ccc2c(c1)C=Cc1cc(C)c(C)cc1C2c1cn(Cc2ccc(C(=O)O)o2)c(=O)[nH]c1=S` (stereo not drawn), the melting point was 292 °C.

`C=CCNC(=O)C1=Cc2c1ccc(OC)c2OC` displayed a melting point of 98 to 99 °C.

In the case of `CCn1ncc(OCc2ccc(C(=O)c3ccc(Cl)cc3)s2)c(Cl)c1=O`, the melting point worked out at 168 °C.

For the molecule `CCCCCCC(C)(C)c1cc(O)c2c(c1)OC(C)(C)[C@@H]1CCC(=O)C[C@H]21` (relative stereo), the melting point was in the range of 151 to 153 °C.

As for `COC(=O)c1cc(CC(C)NCC(O)c2ccc(O)c(CO)c2)ccc1OC` (stereo not drawn), the melting point fell in the range of 69 to 73 °C.

Molecule `O=C(Cc1ccccc1)NCCc1ccccc1` had a melting point of 91 to 92 °C.

`CCOP(=S)(OCC)Oc1nsc(C)c1C(N)=O` registered a melting point of 68 °C.

`CC(=O)Nc1ccc(C(=O)NCCN2[C@H](C)Cc3ccsc3[C@@H]2C)cc1` (relative stereo) registered a melting point of 161 to 162 °C.

In the case of `CCOC(=O)CCC(=O)c1ccc(-c2ccccc2)cc1`, the melting point lay in the range of 100 to 101 °C.

Regarding `COc1cc(C(=O)N(C(C)C)C2CCCCC2)ccc1Oc1cc(OC)c(OC)c(OC)c1`, the melting point lay in the range of 126 to 128 °C.

In the case of `Cc1ccc(Oc2noc(=O)n2S(=O)(=O)c2c(C)noc2C)c(C)c1`, the melting point was 135 to 136 °C.

One may read the melting point as the temperature of the solid-liquid transition.
